Data from BindingDB's records for patent US20250346592 (Celgene, 2025).

Molecular target: Protein-arginine deiminase type-4 (Homo sapiens, UniProt Q9UM07)
Test: RFMS2 Assay
Procedure: Final Assay Conditions:Total reaction volume: 25 μlAssay buffer: […] pH 7.4, 200 mM NaCl, 2 mM CaCl2, 5 mM DTT35 nM recombinant human PAD4500 μM TSTGGRQGSHH peptide1.2% DMSOStop solution: 10% formic acidReaction mixtures were incubated at room temperature for 30 minutes. 10 μl each of the reaction mixtures was then mixed with 40 μl of 10% formic acid in a microtiter plate. The plate was frozen at −80° C. before shipping out on dry ice for RapidFire mass spectroscopy analysis.Thawed samples were loaded onto the Rapid Fire 300 system (Agilent) wherein they were first sipped for 250 ms and then loaded onto a Agilent “C” (C18) cartridge using a mobile phase of water containing 0.09% formic acid/0.01% trifluoroacetic acid for 3000 ms desalting flowing at a rate of 1.5 ml/min. Once the samples were loaded and washed, a mobile phase of acetonitrile containing 0.09% formic acid/0.01% trifluoroacetic acid was used to elute the samples directly onto a Sciex API4000 triple quadrupole mass spectrometer for 3000 ms at a flow rate of 1.25 ml/min.

Protein-arginine deiminase type-4, sequence (Q9UM07 whole entry): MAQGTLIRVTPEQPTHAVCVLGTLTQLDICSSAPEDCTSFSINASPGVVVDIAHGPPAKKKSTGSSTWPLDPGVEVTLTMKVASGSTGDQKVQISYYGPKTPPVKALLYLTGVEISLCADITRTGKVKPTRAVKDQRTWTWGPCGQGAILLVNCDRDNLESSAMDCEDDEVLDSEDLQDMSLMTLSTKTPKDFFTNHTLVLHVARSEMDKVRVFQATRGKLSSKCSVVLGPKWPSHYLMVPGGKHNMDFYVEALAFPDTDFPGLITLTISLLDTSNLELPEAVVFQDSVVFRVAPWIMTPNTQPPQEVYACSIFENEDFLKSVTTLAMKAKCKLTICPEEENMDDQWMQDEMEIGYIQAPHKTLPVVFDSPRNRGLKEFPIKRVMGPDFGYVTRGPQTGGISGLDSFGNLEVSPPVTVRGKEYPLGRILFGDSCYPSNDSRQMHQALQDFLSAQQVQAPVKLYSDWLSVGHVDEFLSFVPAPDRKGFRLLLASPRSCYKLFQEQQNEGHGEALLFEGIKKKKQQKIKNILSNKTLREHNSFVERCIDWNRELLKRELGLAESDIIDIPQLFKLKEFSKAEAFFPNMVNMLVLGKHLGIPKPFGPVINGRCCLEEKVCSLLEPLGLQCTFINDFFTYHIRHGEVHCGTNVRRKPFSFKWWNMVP

**Q.** How did the IC50 turn out when `COc1cccc2cc(-c3nc4cc5c(cc4n3C)CCN(C[C@H](N)CF)C5=O)n(CC(=O)N(C)C)c12` [US20250346592, Example 122] was run?
**A.** The IC50 was > 1 µM.
